Our source for the AC50 values is ChEMBL document CHEMBL5291721, “A preclinical secondary pharmacology resource illuminates target-adverse drug reaction associations of marketed drugs” (Nat Commun, 2023).

Assay [1] deals with Sodium-dependent noradrenaline transporter (Homo sapiens, UniProt P23975).
Assay [2] addresses 5-hydroxytryptamine receptor 2A (Homo sapiens, UniProt P28223). Format: functional, cell-based.
Another assay has as its target Motilin receptor (Homo sapiens, UniProt O43193).
Assay [3] addresses T1, Alpha-2A adrenergic receptor (Homo sapiens, UniProt P08913).
T1 sequence (P08913 whole entry): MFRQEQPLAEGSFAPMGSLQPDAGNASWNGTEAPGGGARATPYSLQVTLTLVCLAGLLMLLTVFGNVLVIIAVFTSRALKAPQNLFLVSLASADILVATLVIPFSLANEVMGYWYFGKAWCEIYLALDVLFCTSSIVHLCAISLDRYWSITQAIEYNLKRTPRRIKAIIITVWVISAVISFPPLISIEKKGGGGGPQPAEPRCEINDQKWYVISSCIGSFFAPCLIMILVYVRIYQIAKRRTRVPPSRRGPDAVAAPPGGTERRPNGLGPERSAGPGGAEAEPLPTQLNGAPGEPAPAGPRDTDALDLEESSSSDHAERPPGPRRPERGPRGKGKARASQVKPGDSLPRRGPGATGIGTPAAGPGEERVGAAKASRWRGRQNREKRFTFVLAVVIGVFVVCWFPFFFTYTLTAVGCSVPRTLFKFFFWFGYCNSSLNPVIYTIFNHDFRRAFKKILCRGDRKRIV
It counts as functional, cell-based.

A further assay deals with D(3) dopamine receptor (Homo sapiens, UniProt P35462).
Chain of D(3) dopamine receptor (P35462 whole entry): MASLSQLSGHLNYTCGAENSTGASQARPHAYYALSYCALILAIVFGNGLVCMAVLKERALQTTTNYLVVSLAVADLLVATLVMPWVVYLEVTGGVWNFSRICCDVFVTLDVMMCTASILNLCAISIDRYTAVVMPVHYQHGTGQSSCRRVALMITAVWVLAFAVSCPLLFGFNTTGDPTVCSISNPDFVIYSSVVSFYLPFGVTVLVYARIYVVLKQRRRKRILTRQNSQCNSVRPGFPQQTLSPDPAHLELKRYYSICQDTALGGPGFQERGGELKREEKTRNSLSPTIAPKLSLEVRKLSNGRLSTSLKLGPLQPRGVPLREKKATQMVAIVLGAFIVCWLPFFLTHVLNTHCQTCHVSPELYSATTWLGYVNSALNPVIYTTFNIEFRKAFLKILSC
Assay [4] concerns the target T2, 5-hydroxytryptamine receptor 3A (Homo sapiens, UniProt P46098).
T2 sequence (P46098 whole entry): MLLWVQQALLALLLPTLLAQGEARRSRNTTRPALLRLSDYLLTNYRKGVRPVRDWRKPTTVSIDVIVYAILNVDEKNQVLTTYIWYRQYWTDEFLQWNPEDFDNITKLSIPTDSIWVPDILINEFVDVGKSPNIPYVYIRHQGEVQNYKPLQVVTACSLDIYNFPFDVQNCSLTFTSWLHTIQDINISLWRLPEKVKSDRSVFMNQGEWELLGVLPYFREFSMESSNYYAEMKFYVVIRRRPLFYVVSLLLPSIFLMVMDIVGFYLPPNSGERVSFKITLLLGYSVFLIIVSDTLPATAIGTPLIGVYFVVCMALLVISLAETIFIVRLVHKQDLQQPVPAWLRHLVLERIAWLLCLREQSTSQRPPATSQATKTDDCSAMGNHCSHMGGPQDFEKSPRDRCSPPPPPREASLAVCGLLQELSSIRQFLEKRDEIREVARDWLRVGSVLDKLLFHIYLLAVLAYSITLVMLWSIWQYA
Format: functional.

The target of assay [5] is Neuronal acetylcholine receptor subunit alpha-4 (Homo sapiens, UniProt P43681).
Chain of Neuronal acetylcholine receptor subunit alpha-4 (P43681 whole entry): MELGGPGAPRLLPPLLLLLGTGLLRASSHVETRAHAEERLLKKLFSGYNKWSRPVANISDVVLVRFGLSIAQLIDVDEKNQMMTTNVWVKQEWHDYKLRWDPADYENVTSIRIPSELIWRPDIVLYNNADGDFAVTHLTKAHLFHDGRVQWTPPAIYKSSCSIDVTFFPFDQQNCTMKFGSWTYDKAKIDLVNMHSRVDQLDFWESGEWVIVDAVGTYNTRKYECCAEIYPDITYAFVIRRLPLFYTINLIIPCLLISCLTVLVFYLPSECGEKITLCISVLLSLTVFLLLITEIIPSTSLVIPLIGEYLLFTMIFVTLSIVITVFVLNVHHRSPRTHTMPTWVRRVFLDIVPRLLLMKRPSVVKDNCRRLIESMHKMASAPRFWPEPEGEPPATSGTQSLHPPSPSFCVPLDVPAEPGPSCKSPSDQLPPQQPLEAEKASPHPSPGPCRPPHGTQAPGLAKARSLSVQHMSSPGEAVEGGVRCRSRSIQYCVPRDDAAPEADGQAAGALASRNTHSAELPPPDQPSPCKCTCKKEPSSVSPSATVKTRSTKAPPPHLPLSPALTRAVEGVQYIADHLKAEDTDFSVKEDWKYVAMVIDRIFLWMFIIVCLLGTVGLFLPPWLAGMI
For assay [6], the target named is Voltage-gated inwardly rectifying potassium channel KCNH2 (Homo sapiens, UniProt Q12809). It counts as functional. The settings on record: read-out: AC50.
Chain of Voltage-gated inwardly rectifying potassium channel KCNH2 (Q12809 whole entry): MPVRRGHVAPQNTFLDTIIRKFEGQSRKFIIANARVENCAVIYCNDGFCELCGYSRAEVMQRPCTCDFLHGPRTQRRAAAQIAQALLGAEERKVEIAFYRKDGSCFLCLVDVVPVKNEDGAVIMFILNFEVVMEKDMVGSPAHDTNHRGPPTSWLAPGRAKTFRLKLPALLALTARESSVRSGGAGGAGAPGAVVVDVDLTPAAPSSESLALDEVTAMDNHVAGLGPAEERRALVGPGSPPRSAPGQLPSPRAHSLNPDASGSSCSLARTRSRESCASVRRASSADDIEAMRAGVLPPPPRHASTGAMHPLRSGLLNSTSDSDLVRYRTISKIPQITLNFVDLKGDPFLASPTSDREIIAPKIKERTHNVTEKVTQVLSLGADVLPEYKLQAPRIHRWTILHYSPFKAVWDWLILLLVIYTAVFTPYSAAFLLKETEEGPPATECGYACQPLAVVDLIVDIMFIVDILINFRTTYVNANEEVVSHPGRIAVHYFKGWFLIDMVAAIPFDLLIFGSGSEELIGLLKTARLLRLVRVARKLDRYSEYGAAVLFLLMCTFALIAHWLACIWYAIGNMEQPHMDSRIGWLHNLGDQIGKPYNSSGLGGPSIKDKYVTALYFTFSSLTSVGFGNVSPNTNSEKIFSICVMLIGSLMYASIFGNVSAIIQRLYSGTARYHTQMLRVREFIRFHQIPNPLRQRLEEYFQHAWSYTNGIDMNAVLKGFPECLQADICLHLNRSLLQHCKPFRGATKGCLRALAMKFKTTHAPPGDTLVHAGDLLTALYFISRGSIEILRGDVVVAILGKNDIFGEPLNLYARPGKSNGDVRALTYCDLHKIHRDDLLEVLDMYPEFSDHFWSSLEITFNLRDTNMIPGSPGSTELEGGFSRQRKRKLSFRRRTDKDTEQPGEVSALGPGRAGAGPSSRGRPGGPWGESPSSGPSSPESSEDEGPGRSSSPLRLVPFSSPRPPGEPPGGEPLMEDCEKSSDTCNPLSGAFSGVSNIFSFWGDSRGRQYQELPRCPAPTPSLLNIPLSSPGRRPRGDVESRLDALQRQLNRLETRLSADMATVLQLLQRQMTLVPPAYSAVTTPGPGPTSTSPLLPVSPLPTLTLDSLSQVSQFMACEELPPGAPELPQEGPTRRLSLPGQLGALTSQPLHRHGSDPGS
The target in assay [7] is T3, Prostaglandin G/H synthase 1 (Rattus norvegicus, UniProt Q63921).
T3 sequence (Q63921 whole entry): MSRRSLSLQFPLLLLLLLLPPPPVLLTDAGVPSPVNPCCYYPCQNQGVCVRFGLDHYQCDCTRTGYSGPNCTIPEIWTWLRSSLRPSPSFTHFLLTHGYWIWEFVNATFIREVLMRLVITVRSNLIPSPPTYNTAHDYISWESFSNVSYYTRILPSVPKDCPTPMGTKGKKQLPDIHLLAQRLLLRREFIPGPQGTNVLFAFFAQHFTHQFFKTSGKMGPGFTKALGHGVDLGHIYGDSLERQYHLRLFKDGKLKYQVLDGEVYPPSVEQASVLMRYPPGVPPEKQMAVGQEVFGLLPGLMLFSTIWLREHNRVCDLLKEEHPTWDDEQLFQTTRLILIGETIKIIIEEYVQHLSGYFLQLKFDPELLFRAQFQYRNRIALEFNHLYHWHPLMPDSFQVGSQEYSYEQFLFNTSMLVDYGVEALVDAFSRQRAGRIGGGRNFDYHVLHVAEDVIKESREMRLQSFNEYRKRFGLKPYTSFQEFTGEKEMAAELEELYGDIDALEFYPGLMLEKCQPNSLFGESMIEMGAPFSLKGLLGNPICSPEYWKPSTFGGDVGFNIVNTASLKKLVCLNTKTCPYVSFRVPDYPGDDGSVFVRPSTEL
It counts as functional.

For assay [8], the target named is T4, Alpha-1A adrenergic receptor (Homo sapiens, UniProt P35348).
T4 sequence (P35348 whole entry): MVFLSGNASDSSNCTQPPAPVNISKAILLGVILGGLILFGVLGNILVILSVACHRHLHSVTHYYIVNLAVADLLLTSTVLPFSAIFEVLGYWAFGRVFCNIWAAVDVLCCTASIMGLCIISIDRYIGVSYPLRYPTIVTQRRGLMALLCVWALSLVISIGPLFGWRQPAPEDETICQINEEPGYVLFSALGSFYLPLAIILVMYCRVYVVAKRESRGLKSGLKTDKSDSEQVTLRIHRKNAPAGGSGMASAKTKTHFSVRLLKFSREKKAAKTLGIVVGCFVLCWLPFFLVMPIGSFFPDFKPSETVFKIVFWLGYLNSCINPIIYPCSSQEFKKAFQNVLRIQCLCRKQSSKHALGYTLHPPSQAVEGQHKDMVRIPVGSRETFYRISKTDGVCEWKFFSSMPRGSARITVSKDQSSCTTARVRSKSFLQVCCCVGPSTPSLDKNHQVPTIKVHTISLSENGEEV
It counts as functional, cell-based.

Assay [9] has as its target T4, Alpha-1A adrenergic receptor. It counts as functional, cell-based. This is another data set of the same source.
The next assay addresses Cannabinoid receptor 1 (Homo sapiens, UniProt P21554). Format: functional, cell-based.
Note: assay procedure not described here.

Chain of Cannabinoid receptor 1 (P21554 whole entry): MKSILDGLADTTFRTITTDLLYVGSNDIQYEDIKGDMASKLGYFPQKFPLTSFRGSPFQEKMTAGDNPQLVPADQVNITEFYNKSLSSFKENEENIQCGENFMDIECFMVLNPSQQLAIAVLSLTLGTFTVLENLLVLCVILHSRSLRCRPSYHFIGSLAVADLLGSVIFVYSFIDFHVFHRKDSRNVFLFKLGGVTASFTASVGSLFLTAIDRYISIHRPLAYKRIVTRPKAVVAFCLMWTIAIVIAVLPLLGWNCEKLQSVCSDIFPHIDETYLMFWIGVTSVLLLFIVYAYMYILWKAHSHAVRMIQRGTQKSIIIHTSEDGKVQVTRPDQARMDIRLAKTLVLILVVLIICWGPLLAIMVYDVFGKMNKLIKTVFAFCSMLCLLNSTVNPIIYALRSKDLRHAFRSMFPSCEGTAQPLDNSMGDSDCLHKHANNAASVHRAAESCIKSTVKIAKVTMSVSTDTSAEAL
Chain of Sodium-dependent noradrenaline transporter (P23975 whole entry): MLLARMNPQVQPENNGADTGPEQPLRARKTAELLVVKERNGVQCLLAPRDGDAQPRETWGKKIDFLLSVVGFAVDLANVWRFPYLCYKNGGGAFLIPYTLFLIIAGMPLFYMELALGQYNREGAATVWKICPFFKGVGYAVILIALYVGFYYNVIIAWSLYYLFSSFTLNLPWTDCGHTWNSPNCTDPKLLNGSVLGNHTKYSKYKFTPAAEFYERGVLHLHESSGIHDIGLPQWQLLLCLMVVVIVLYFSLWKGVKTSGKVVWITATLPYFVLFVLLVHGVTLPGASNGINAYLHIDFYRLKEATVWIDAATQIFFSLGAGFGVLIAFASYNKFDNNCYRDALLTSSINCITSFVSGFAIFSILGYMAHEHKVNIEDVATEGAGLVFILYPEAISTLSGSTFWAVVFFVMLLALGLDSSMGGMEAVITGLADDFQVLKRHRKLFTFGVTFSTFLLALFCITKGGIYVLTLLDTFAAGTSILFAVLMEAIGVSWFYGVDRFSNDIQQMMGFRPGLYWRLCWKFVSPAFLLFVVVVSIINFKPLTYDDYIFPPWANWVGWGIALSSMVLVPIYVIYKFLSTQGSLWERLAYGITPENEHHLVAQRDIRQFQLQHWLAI
Chain of Motilin receptor (O43193 whole entry): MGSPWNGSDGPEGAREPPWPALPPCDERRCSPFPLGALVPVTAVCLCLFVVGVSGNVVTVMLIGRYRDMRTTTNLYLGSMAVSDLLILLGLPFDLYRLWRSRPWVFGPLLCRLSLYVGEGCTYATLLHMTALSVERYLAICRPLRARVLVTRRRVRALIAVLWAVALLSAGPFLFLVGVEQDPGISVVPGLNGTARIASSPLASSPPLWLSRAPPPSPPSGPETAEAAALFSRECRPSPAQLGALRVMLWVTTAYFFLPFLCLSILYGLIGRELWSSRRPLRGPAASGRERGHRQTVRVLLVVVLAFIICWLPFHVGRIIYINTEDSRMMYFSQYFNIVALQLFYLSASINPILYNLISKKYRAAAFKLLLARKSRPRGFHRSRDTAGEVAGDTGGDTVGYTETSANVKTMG
Chain of 5-hydroxytryptamine receptor 2A (P28223 whole entry): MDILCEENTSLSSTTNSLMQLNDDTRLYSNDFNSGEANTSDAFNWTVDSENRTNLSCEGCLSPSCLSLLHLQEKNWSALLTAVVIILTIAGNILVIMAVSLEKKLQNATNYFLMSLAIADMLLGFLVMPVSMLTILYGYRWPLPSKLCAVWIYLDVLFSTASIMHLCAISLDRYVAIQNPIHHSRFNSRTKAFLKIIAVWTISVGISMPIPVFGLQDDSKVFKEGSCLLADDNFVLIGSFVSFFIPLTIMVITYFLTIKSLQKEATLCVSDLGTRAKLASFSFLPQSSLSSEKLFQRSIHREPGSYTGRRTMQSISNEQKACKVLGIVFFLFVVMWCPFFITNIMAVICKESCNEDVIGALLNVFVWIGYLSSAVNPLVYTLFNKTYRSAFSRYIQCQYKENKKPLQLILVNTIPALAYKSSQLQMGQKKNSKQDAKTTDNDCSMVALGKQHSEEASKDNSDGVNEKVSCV

As to `COC(=O)[C@H]1[C@H]2C[C@@H]3c4[nH]c5ccccc5c4CCN3C[C@H]2C[C@@H](OC(=O)c2cc(OC)c(OC)c(OC)c2)[C@@H]1OC` [DESERPIDINE], the AC50 (in general, the midpoint of the concentration-response curve, whichever way the signal moves) is greater than 10 µM in assay [1]; greater than 10 µM in assay [2]; greater than 30 µM on Motilin receptor; greater than 10 µM in assay [3]; greater than 30 µM on D(3) dopamine receptor; greater than 30 µM in assay [4]. The AC50 was greater than 30 µM in [5], 2.45 µM in [6] and 34.3 µM in [7].
`CCC(=O)[C@@]1(C)[C@H](C)C[C@H]2[C@@H]3CCC4=CC(=O)C=C[C@]4(C)[C@H]3[C@@H](O)C[C@@]21C` [RIMEXOLONE]: the AC50 in assay [1] was greater than 10 µM; in assay [2], greater than 10 µM; on Motilin receptor it was greater than 10 µM; in assay [3] it was greater than 10 µM; at D(3) dopamine receptor, greater than 30 µM; in assay [4], greater than 30 µM. Also, the AC50 in assay [5] is greater than 10 µM; in assay [6] it was greater than 30 µM; in assay [7], greater than 10 µM.
Take `CCC1(CC)C(=O)NC(=O)N(C)C1=O` [METHARBITAL]: the AC50 was greater than 10 µM in assay [1]; greater than 10 µM in assay [2]; greater than 10 µM at Motilin receptor; greater than 10 µM in [3]; greater than 30 µM on D(3) dopamine receptor; greater than 30 µM in assay [4]. Moreover, the AC50 in assay [5] was greater than 10 µM; in assay [6] it was greater than 30 µM; in [7] it was greater than 10 µM.
As to `CC(=O)OCC1=C(C(=O)O)N2C(=O)[C@@H](NC(=O)CSc3ccncc3)[C@H]2SC1` [CEPHAPIRIN], the AC50 in assay [1] is greater than 10 µM; in assay [2], greater than 10 µM; on Motilin receptor, greater than 10 µM; in assay [3], greater than 10 µM; at D(3) dopamine receptor, greater than 30 µM; in [4] it was greater than 30 µM. Moreover, the figures for the AC50 in assay [5], in assay [6] and in assay [7] were greater than 10 µM, greater than 30 µM and greater than 10 µM, respectively.
In the case of `Nc1nc(Cl)nc2c1ncn2[C@@H]1O[C@H](CO)[C@@H](O)[C@@H]1F` [CLOFARABINE], the concentration at half-maximal activity (AC50) in assay [1] is greater than 30 µM; in assay [2] it was greater than 30 µM; at Motilin receptor, greater than 30 µM; in assay [3], greater than 10 µM; on D(3) dopamine receptor, greater than 30 µM; in assay [4], greater than 30 µM. Also, the AC50 in assay [5], in [6] and in [7] was greater than 30 µM in each case.
Consider `CN(C)CCOC(=O)C(c1ccccc1)C1(O)CCCC1` (centres undefined) [CYCLOPENTOLATE], for which the half-maximal activity concentration (AC50) in assay [1] was greater than 30 µM; in [2], greater than 10 µM; at Motilin receptor it was greater than 10 µM; in assay [3], greater than 10 µM; on D(3) dopamine receptor, greater than 30 µM; in assay [4] it was greater than 30 µM. Moreover, the AC50 is greater than 10 µM in assay [5], greater than 30 µM in assay [6] and greater than 10 µM in [7].
For `CCOC(=O)O[C@]1(C(=O)COC(=O)CC)CC[C@H]2[C@@H]3CCC4=CC(=O)C=C[C@]4(C)[C@H]3[C@@H](O)C[C@@]21C` [PREDNICARBATE], the AC50 in assay [1] was greater than 10 µM; in [2], greater than 10 µM; at Motilin receptor, greater than 10 µM; in [3], greater than 10 µM; on D(3) dopamine receptor, greater than 30 µM; in assay [4], greater than 30 µM. For the same compound, the AC50 in [5] was greater than 10 µM; in assay [6], greater than 30 µM; in assay [7] it was greater than 10 µM.
In the case of `CCCCCCOC(=O)NC(=N)c1ccc(NCc2nc3cc(C(=O)N(CCC(=O)OCC)c4ccccn4)ccc3n2C)cc1` [DABIGATRAN ETEXILATE], the AC50 in [8] is greater than 30 µM; in [1], 6.3 µM; in assay [2] it was greater than 30 µM; at Motilin receptor it was greater than 30 µM; in assay [3], greater than 30 µM; at D(3) dopamine receptor, greater than 30 µM. Besides, the AC50 in assay [9], in assay [4], in assay [5] and in [7] was greater than 30 µM in each case.
On to `CCC(NC(C)C)C(O)c1ccc(O)c(O)c1` (centres undefined) [ISOETHARINE], for which the AC50 (in [1]; in [2]; at Motilin receptor; in [3]; on D(3) dopamine receptor; in assay [4]) was greater than 30 µM throughout. Further, the AC50 in assay [5] is greater than 30 µM; in [6] it was greater than 30 µM; in assay [7], 0.66 µM.
Turning to `CC1Cc2ccccc2N1NC(=O)c1ccc(Cl)c(S(N)(=O)=O)c1` (centres undefined) [INDAPAMIDE], the AC50 is greater than 30 µM in assay [8]; greater than 30 µM in assay [1]; greater than 30 µM at Cannabinoid receptor 1; greater than 10 µM on Motilin receptor; greater than 10 µM in assay [3]; greater than 30 µM on D(3) dopamine receptor. Also, the AC50 in assay [9] is greater than 30 µM; in assay [4] it was greater than 30 µM; in assay [5], greater than 10 µM; in assay [6], greater than 30 µM; in [7] it was greater than 30 µM.
`OCC(O)COc1ccc(Cl)cc1` (centres undefined): the AC50 is greater than 10 µM in assay [1]; greater than 10 µM in assay [2]; greater than 10 µM at Motilin receptor; greater than 10 µM in [3]; greater than 30 µM on D(3) dopamine receptor; greater than 30 µM in assay [4]. Further, the AC50 is greater than 10 µM in [5], greater than 30 µM in [6] and greater than 10 µM in assay [7].
`CC(=O)OCC(=O)[C@@]1(O)CC[C@H]2[C@@H]3CCC4=CC(=O)CC[C@]4(C)[C@@]3(F)[C@@H](O)C[C@@]21C` [FLUDROCORTISONE ACETATE]: the AC50 (in assay [8]; in [1]; on Cannabinoid receptor 1; at Motilin receptor; in assay [3]; on D(3) dopamine receptor) was greater than 30 µM in each case. Further, the AC50 in [9], in assay [4], in assay [5], in assay [6] and in assay [7] was greater than 30 µM each time.
With `CCN(C(C)=O)c1cccc(-c2ccnc3c(C#N)cnn23)c1` [ZALEPLON], the AC50 in assay [8] was greater than 30 µM; in assay [1], greater than 30 µM; at Cannabinoid receptor 1, greater than 30 µM; on Motilin receptor, greater than 30 µM; in [3], greater than 10 µM; on D(3) dopamine receptor, greater than 30 µM. Further, the AC50 in [9], in [4], in assay [5], in [6] and in [7] was greater than 30 µM in each case.
